Data reported in US11987588B2, “Modulators of the beta-3 adrenergic receptor useful for the treatment or prevention of heart failure and disorders related thereto” (Arena Pharmaceuticals, Inc., priority 2017, dated 2024).
“Also recorded” adds a separate entry of the source.

target: Beta-3 Adrenergic Receptor (Homo sapiens (Human), UniProt P13945); test: Homogeneous Time-Resolved Fluorescence (HTRF) cAMP antagonist assay, IC50 determination; format: cell-based; conditions: CHO-K1 cells stably expressing recombinant receptor, isoproterenol at EC90
How it was run: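 Antagonist mode: isoproterenol at its predetermined EC90 added after compound to recombinant CHO-K1 cells in IBMX-containing PBS, 1 h, room temperature. Compounds tested as 5-fold, 10-point dilutions, top final typically 10 or 100 μM. HTRF signal converted to cAMP via standard curve, giving IC50.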

Beta-3 Adrenergic Receptor, sequence (P13945 whole entry, species assumed): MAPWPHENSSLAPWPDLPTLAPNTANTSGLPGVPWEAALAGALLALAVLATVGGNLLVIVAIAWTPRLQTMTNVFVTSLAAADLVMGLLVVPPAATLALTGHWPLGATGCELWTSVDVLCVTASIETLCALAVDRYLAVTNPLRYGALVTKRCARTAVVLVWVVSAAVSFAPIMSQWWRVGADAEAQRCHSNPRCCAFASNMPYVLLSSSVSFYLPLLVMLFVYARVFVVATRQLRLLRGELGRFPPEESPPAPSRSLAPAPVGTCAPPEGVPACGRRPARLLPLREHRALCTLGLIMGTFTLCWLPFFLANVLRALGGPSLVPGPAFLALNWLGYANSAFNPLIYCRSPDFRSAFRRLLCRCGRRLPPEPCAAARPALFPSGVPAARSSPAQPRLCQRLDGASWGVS

Question: Which IC50 does the source give for CNS(=O)(=O)c1cccc(OC[C@@H](O)CN[C@H]2COC3(CCN(S(=O)(=O)c4cnc5cc[nH]c5c4)CC3)C2)c1 [Compound 505, 3-((S)-3-((R)-8-(1H-pyrrolo[3,2-b]pyridin-6-ylsulfonyl)-1-oxa-8-azaspiro[4.5]decan-3-ylamino)-2-hydroxypropoxy)-N-methylbenzenesulfonamide] here?
Answer: 0.00846 µM

Question: With CNS(=O)(=O)c1cccc(OC[C@@H](O)CNC2COC3(CCN(S(=O)(=O)c4cc(-c5ccc(CN)cc5)cc(C(F)(F)F)c4)CC3)C2)c1 (stereo partly drawn) [Compound 367, 3-((2S)-3-(8-(4′-(aminomethyl)-5-(trifluoromethyl)biphenyl-3-ylsulfonyl)-1-oxa-8-azaspiro[4.5]decan-3-ylamino)-2-hydroxypropoxy)-N-methylbenzenesulfonamide] as the compound, how does the IC50 read?
Answer: 0.0312 µM

Question: How did the IC50 turn out when CNS(=O)(=O)c1cccc(OC[C@@H](O)CNC2COC3(CCN(S(=O)(=O)c4ccc(C)c(C)c4)CC3)C2)c1 (stereo partly drawn) [Compound 19, 3-((2S)-3-(8-(3,4-dimethylphenylsulfonyl)-1-oxa-8-azaspiro[4.5]decan-3-ylamino)-2-hydroxypropoxy)-N-methylbenzenesulfonamide] was run?
Answer: 0.01 µM

Question: How did the IC50 turn out when O=S(=O)(NCC1CC1)c1cccc(OC[C@@H](O)CNC2COC3(CCN(S(=O)(=O)c4ccc5ccccc5c4)CC3)C2)c1 (stereo partly drawn) [Compound 8, N-(cyclopropylmethyl)-3-((2S)-2-hydroxy-3-(8-(naphthalen-2-ylsulfonyl)-1-oxa-8-azaspiro[4.5]decan-3-ylamino)propoxy)benzenesulfonamide] was run?
Answer: 0.0387 µM

Question: Which IC50 does the source give for CNS(=O)(=O)c1cccc(OC[C@@H](O)CNC2COC3(CCN(S(=O)(=O)c4ccc(F)c(F)c4)CC3)C2)c1 (stereo partly drawn) [Compound 141, 3-((2S)-3-(8-(3,4-difluorophenylsulfonyl)-1-oxa-8-azaspiro[4.5]decan-3-ylamino)-2-hydroxypropoxy)-N-methylbenzenesulfonamide] here?
Answer: 0.0351 µM

Question: CN(C)S(=O)(=O)c1cccc(OC[C@@H](O)CNC2COC3(CCN(S(=O)(=O)c4cccc(-c5ccc(S(N)(=O)=O)cc5)c4)CC3)C2)c1 (stereo partly drawn) [Compound 274, 3′-(3-((S)-3-(3-(N,N-dimethylsulfamoyl)phenoxy)-2-hydroxypropylamino)-1-oxa-8-azaspiro[4.5]decan-8-ylsulfonyl)biphenyl-4-sulfonamide] was tested. Which IC50 did it give?
Answer: 0.0211 µM

Question: For Cc1cc(S(=O)(=O)N2CCC3(CC2)C[C@@H](NC[C@H](O)COc2cccc(S(N)(=O)=O)c2)CO3)ccc1Br [Compound 590, 3-((S)-3-((R)-8-(4-bromo-3-methylphenylsulfonyl)-1-oxa-8-azaspiro[4.5]decan-3-ylamino)-2-hydroxypropoxy)benzenesulfonamide], which IC50 is on record?
Answer: 0.0174 µM

Question: With NS(=O)(=O)c1cccc(OC[C@@H](O)CN[C@H]2COC3(CCN(S(=O)(=O)c4cccc(Cl)c4)CC3)C2)c1 [Compound 591, 3-((S)-3-((R)-8-(3-chlorophenylsulfonyl)-1-oxa-8-azaspiro[4.5]decan-3-ylamino)-2-hydroxypropoxy)benzenesulfonamide] as the compound, how does the IC50 read?
Answer: 0.149 µM

Question: Which IC50 does the source give for CNS(=O)(=O)c1cccc(OC[C@@H](O)CN[C@@H]2COC3(CCN(S(=O)(=O)c4ccc(Br)c(C)c4)CC3)C2)c1 [Compound 270, 3-((S)-3-((S)-8-(4-bromo-3-methylphenylsulfonyl)-1-oxa-8-azaspiro[4.5]decan-3-ylamino)-2-hydroxypropoxy)-N-methylbenzenesulfonamide] here?
Answer: 0.0167 µM

Question: With CNS(=O)(=O)c1cccc(OC[C@@H](O)CN[C@H]2COC3(CCN(c4ncc(C(F)(F)F)cn4)CC3)C2)c1 [Compound 583, 3-((S)-2-hydroxy-3-((R)-8-(5-(trifluoromethyl)pyrimidin-2-yl)-1-oxa-8-azaspiro[4.5]decan-3-ylamino)propoxy)-N-methylbenzenesulfonamide] as the compound, how does the IC50 read?
Answer: 1.84 µM

Question: CNS(=O)(=O)c1cccc(OC[C@@H](O)CNC2COC3(CCN(S(=O)(=O)c4cncc(-c5ccc(CN)cc5)c4)CC3)C2)c1 (stereo partly drawn) [Compound 341, 3-((2S)-3-(8-(5-(4-(aminomethyl)phenyl)pyridin-3-ylsulfonyl)-1-oxa-8-azaspiro[4.5]decan-3-ylamino)-2-hydroxypropoxy)-N-methylbenzenesulfonamide] was tested. Which IC50 did it give?
Answer: 0.0285 µM

Question: CNS(=O)(=O)c1cccc(OC[C@@H](O)CNC2COC3(CCN(S(=O)(=O)c4ccc(NCCN)nc4)CC3)C2)c1 (stereo partly drawn) [Compound 429, 3-((2S)-3-(8-(6-(2-aminoethylamino)pyridin-3-ylsulfonyl)-1-oxa-8-azaspiro[4.5]decan-3-ylamino)-2-hydroxypropoxy)-N-methylbenzenesulfonamide] was tested. Which IC50 did it give?
Answer: 0.149 µM

Question: For CNS(=O)(=O)c1cccc(OC[C@@H](O)CNC2COC3(CCN(S(=O)(=O)CCc4ccncc4)CC3)C2)c1 (stereo partly drawn) [Compound 378, 3-((2S)-2-hydroxy-3-(8-(2-(pyridin-4-yl)ethylsulfonyl)-1-oxa-8-azaspiro[4.5]decan-3-ylamino)propoxy)-N-methylbenzenesulfonamide], which IC50 is on record?
Answer: 0.131 µM

Question: CNS(=O)(=O)c1cccc(OC[C@@H](O)CNC2COC3(CCN(S(=O)(=O)c4cccc(-c5ccc(CC(=O)O)cc5)c4)CC3)C2)c1 (stereo partly drawn) [Compound 87, 2-(3′-(3-((S)-2-hydroxy-3-(3-(N-methylsulfamoyl)phenoxy)propylamino)-1-oxa-8-azaspiro[4.5]decan-8-ylsulfonyl)biphenyl-4-yl)acetic acid] was tested. Which IC50 did it give?
Answer: 0.0661 µM

test system: chronic heart failure (CHF) rats; test: Chronic heart failure (CHF) rat model, attenuation of negative contractile effects of BRL 37344 on left ventricular pressure; format: in vivo; conditions: 10 min infusion at 3, 10, 30 mg/kg/hr, then bolus of BRL (3 μg/kg)
Method: Beta-3 adrenergic receptor antagonists can be evaluated for effects on cardiac contractility in chronic heart failure (CHF) rats. Beta-3 adrenergic receptor expression is weak in the normal rat heart and higher in the rat heart with CHF. Because beta-3 adrenergic receptor expression is higher in the rat heart with CHF, a compound of the present invention was evaluated for the ability to attenuate the negative contractile effects of the beta-3 adrenergic receptor agonist BRL 37344 (BRL) compared to baseline in this CHF rat model.
Myocardial infarction was induced in male Sprague-Dawley rats by performing left coronary descending artery ligation. […]
Heart failure was evaluated weekly following surgery by testing impaired left ventricular function by echocardiography. Left ventricle end-diastolic volume (LVEDV) and left ventricle end-systolic volume (LVESV) were measured for at least three consecutive cardiac cycles in long-axis view images. Ejection Fraction (EF %) was calculated using the following formula: EF %=(LVEDV-LVESV)/LVEDV. […]
A direct determination of left ventricular function was used for all rats to evaluate the effects of compounds on left ventricular contractility. […] Left ventricular pressure (LVP) was monitored by LabChart with POWERLAB® Data Acquisition System (ADInstruments, Sydney, Australia). […]

Question: For CNS(=O)(=O)c1cccc(OC[C@@H](O)CN[C@H]2COC3(CCN(S(=O)(=O)c4cnc5cc[nH]c5c4)CC3)C2)c1 [Compound 505, 3-((S)-3-((R)-8-(1H-pyrrolo[3,2-b]pyridin-6-ylsulfonyl)-1-oxa-8-azaspiro[4.5]decan-3-ylamino)-2-hydroxypropoxy)-N-methylbenzenesulfonamide], which “left ventricular pressure (LVP)” value is on record?
Answer: dose-dependent improvement; also recorded: inhibition of negative effects of BRL on left ventricular pressure (LVP)
